The target in one assay is human TLR8 (Homo sapiens (Human), UniProt Q9NR97). As to the kind of experiment: HEK-Blue human TLR8 cells NF-κB SEAP reporter assay. To be noted: stimulation for 20 hours. It is filed as cell-based. The source says:
(§1) For TLR8 and TLR7 activity testing, HEK-Blue human TLR8 or TLR7 cells (Invivogen, San Diego, Calif., USA) are used, respectively. These cells are designed for studying the stimulation of human TLR8 or TLR7 by monitoring the activation of NF-κB. A SEAP (secreted embryonic alkaline phosphatase) reporter gene is placed under the control of the IFN-b minimal promoter fused to five NF-κB and AP-1-binding sites. Therefore the reporter expression is regulated by the NF-κB promoter upon stimulation of human TLR8 or TLR7 for 20 hours. The cell culture supernatant SEAP reporter activity was determined using Quanti Blue kit (Invivogen, San Diego, Calif., USA) at a wavelength of 640 nm, a detection medium that turns purple/blue in the presence of alkaline phosphatase. EC50 values were determined using Activity Base analysis (ID Business Solution, Limited).
(In a reporter assay the amount or activity of a reporter protein is the signal.)

In another assay the target is human TLR7 (Homo sapiens (Human), UniProt Q9NYK1). As to the kind of experiment: HEK-Blue human TLR7 cells NF-κB SEAP reporter assay. It is filed as cell-based. The following applies: stimulation for 20 hours.
Chain of human TLR7 (Q9NYK1 27-1049): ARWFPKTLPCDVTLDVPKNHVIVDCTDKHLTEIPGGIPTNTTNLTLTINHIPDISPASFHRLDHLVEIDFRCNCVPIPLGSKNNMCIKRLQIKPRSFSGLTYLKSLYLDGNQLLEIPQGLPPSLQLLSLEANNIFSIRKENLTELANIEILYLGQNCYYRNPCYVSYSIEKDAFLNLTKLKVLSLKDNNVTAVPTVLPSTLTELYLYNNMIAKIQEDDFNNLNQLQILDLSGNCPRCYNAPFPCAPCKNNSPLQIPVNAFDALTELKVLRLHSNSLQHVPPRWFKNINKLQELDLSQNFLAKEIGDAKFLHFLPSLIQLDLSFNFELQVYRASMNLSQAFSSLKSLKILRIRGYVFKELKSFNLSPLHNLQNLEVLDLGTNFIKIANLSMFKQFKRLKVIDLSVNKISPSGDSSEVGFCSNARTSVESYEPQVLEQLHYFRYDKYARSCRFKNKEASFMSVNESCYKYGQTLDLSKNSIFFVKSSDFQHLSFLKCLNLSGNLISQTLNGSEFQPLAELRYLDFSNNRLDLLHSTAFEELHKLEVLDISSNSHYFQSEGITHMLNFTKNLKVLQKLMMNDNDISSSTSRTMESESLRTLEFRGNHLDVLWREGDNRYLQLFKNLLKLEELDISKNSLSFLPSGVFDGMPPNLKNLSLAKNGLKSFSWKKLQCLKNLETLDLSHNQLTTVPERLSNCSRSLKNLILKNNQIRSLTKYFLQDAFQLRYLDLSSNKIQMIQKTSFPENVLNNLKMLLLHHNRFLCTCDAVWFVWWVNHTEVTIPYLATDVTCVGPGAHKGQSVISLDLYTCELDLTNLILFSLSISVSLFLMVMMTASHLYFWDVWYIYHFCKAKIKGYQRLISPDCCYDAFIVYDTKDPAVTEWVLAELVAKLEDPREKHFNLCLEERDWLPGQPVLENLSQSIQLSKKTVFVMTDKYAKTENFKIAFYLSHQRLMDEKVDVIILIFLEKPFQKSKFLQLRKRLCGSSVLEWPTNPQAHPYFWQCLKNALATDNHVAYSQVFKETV
Source text: as §1

Chain of human TLR8 (Q9NR97 27-1041): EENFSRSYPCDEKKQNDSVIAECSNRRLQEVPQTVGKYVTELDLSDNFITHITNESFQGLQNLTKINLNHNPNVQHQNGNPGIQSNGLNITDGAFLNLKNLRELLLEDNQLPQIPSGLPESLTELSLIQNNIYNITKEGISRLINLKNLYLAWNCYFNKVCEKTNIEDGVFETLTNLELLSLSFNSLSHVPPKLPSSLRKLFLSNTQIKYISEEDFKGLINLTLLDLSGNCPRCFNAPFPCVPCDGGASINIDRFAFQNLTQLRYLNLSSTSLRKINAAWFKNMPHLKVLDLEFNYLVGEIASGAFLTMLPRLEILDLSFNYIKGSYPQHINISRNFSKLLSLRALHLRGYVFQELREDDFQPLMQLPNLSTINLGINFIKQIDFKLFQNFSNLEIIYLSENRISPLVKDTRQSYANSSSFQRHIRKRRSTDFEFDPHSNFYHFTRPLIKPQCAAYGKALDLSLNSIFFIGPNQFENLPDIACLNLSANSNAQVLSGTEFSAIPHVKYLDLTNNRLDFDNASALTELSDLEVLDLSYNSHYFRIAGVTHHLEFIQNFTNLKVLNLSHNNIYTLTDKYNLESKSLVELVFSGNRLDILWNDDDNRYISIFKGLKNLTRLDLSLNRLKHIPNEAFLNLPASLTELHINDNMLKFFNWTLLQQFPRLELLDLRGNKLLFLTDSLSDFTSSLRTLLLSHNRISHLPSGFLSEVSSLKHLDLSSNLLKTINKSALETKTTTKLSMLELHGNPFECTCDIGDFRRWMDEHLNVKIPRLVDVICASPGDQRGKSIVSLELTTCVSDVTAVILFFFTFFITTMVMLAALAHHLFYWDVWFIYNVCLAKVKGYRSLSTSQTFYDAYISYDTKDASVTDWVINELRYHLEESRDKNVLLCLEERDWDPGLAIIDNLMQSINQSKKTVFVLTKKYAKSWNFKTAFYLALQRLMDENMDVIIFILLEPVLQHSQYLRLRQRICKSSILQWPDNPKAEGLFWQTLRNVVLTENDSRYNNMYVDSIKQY

Broadly, the EC50 is the concentration giving half of the maximal effect. Read a high EC50 as a less potent agent. On to `CCCN(CCC)C(=O)C1=Cc2ccc(-c3cccc(S(=O)(=O)NCCCCCCO)c3)cc2N=C(N)C1` [Example 12, 2-Amino-8-[3-(6-hydroxyhexylsulfamoyl)phenyl]-N,N-dipropyl-3H-1-benzazepine-4-carboxamide], for which the 50% effective concentration (EC50) at human TLR8 turned out to be 8 nM; at human TLR7, 12000 nM.
Consider `CCCN(CCC)C(=O)C1=Cc2ccc(-c3cccc(S(=O)(=O)N4CCC[C@@H](O)C4)c3)cc2N=C(N)C1` [Example 17, 2-Amino-8-[3-[[(3R)-3-hydroxy-1-piperidyl]sulfonyl]phenyl]-N,N-dipropyl-3H-1-benzazepine-4-carboxamide], for which the EC50 on human TLR8 was 5 nM; on human TLR7, greater than 100000 nM.
As for `CCCN(CCC)C(=O)C1=Cc2ccc(-c3cccc(S(N)(=O)=O)c3)cc2N=C(N)C1` [Example 1, 2-Amino-N,N-dipropyl-8-(3-sulfamoylphenyl)-3H-1-benzazepine-4-carboxamide], the results for the EC50 on human TLR8 and at human TLR7 were 6 nM and 3000 nM, respectively.
Consider `CCCN(CCC)C(=O)C1=Cc2ccc(-c3cc(C)cc(S(=O)(=O)N4CC[C@@H](O)C4)c3)cc2N=C(N)C1` [Example 23, 2-Amino-8-[3-[(3R)-3-hydroxypyrrolidin-1-yl]sulfonyl-5-methyl-phenyl]-N,N-dipropyl-3H-1-benzazepine-4-carboxamide], for which the EC50 was 6 nM at human TLR8 and 13000 nM on human TLR7.
On the same counts, the results for `CCCN(CCC)C(=O)C1=Cc2ccc(-c3cccc(S(=O)(=O)N4CC(O)C4)c3)cc2N=C(N)C1` [Example 9, 2-Amino-8-[3-(3-hydroxyazetidin-1-yl)sulfonylphenyl]-N,N-dipropyl-3H-1-benzazepine-4-carboxamide] are 5 nM and 17000 nM.
For `CCCN(CCC)C(=O)C1=Cc2ccc(-c3cccc(S(=O)(=O)N4CC(CO)C4)c3)cc2N=C(N)C1` [Example 16, 2-Amino-8-[3-[3-(hydroxymethyl)azetidin-1-yl]sulfonylphenyl]-N,N-dipropyl-3H-1-benzazepine-4-carboxamide], the figures for the concentration for a half-maximal effect (EC50) on human TLR8 and on human TLR7 were 2 nM and 26000 nM, respectively.
Turning to `CCCN(CCC)C(=O)C1=Cc2ccc(-c3ccc(S(=O)(=O)N4CCC(O)C4)cc3)cc2N=C(N)C1` (stereo not shown) [Example 6, 2-Amino-8-[4-(3-hydroxypyrrolidin-1-yl)sulfonylphenyl]-N,N-dipropyl-3H-1-benzazepine-4-carboxamide], the 50% effective concentration (EC50) on human TLR8 was 10 nM; at human TLR7 it was 104000 nM.
As for `CCCN(CCC)C(=O)C1=Cc2ccc(-c3cccc(S(=O)(=O)N4CC[C@H](O)C4)c3)cc2N=C(N)C1` [Example 8, 2-Amino-8-[3-[(3S)-3-hydroxypyrrolidin-1-yl]sulfonylphenyl]-N,N-dipropyl-3H-1-benzazepine-4-carboxamide], the EC50 stood at 5 nM at human TLR8 and 24000 nM on human TLR7.
Regarding `CCCN(CCC)C(=O)C1=Cc2ccc(-c3cncc(S(=O)(=O)N4CCC(N)C4)c3)cc2N=C(N)C1` (stereo not shown) [Example 22, 2-Amino-8-[5-(3-aminopyrrolidin-1-yl)sulfonyl-3-pyridyl]-N,N-dipropyl-3H-1-benzazepine-4-carboxamide], the EC50 at human TLR8 was determined as 31 nM; at human TLR7 it was 17000 nM.
Turning to `CCCN(CCC)C(=O)C1=Cc2ccc(-c3cccc(S(=O)(=O)NCCO)c3)cc2N=C(N)C1` [Example 2, 2-Amino-8-[3-(2-hydroxyethylsulfamoyl)phenyl]-N,N-dipropyl-3H-1-benzazepine-4-carboxamide], the EC50 stood at 6 nM on human TLR8 and 7000 nM on human TLR7.
In the case of `CCCN(CCC)C(=O)C1=Cc2ccc(-c3cncc(S(N)(=O)=O)c3)cc2N=C(N)C1` [Example 4, 2-Amino-N,N-dipropyl-8-(5-sulfamoyl-3-pyridyl)-3H-1-benzazepine-4-carboxamide], the concentration for a half-maximal effect (EC50) at human TLR8 was determined as 23 nM; on human TLR7, 5000 nM.
Take `CCCN(CCC)C(=O)C1=Cc2ccc(-c3cc(C(F)(F)F)cc(S(=O)(=O)N4CC[C@@H](O)C4)c3)cc2N=C(N)C1` [Example 14, 2-Amino-8-[3-[(3R)-3-hydroxypyrrolidin-1-yl]sulfonyl-5-(trifluoromethyl)phenyl]-N,N-dipropyl-3H-1-benzazepine-4-carboxamide]: the results for the concentration for a half-maximal effect (EC50) at human TLR8 and at human TLR7 were 9 nM and greater than 100000 nM, respectively.
For the compound `CCCN(CCC)C(=O)C1=Cc2ccc(-c3cccc(S(=O)(=O)N4CCC[C@H](O)C4)c3)cc2N=C(N)C1` [Example 18, 2-Amino-8-[3-[[(3S)-3-hydroxy-1-piperidyl]sulfonyl]phenyl]-N,N-dipropyl-3H-1-benzazepine-4-carboxamide], the EC50 on human TLR8 was 6 nM; on human TLR7, greater than 100000 nM.
With `CCCN(CCC)C(=O)C1=Cc2ccc(-c3cccc(S(=O)(=O)N4CC[C@@H](O)C4)c3C)cc2N=C(N)C1` [Example 19, 2-Amino-8-[3-[(3R)-3-hydroxypyrrolidin-1-yl]sulfonyl-2-methyl-phenyl]-N,N-dipropyl-3H-1-benzazepine-4-carboxamide], the 50% effective concentration (EC50) on human TLR8 came out at 9 nM; on human TLR7, 14000 nM.
For `CCCN(CCC)C(=O)C1=Cc2ccc(-c3cccc(S(=O)(=O)N4CC[C@@H](O)C4)c3)cc2N=C(N)C1` [Example 7, 2-Amino-8-[3-[(3R)-3-hydroxypyrrolidin-1-yl]sulfonylphenyl]-N,N-dipropyl-3H-1-benzazepine-4-carboxamide], the 50% effective concentration (EC50) at human TLR8 turned out to be 5 nM; at human TLR7, 18000 nM.
Taken in the same sequence, the figures for `CCCN(CCC)C(=O)C1=Cc2ccc(-c3cccc(S(=O)(=O)N4CCC(O)C4)c3)cc2N=C(N)C1` (stereo not shown) [Example 5, 2-Amino-8-[3-(3-hydroxypyrrolidin-1-yl)sulfonylphenyl]-N,N-dipropyl-3H-1-benzazepine-4-carboxamide] were 3 nM and 103000 nM.
Turning to `CCCN(CCC)C(=O)C1=Cc2ccc(-c3cccc(S(=O)(=O)NCCOCCO)c3)cc2N=C(N)C1` [Example 11, 2-Amino-8-[3-[2-(2-hydroxyethoxy)ethylsulfamoyl]phenyl]-N,N-dipropyl-3H-1-benzazepine-4-carboxamide], the concentration for a half-maximal effect (EC50) at human TLR8 came to 8 nM; at human TLR7, 12000 nM.
With `CCCN(CCC)C(=O)C1=Cc2ccc(-c3cccc(S(=O)(=O)N(C)CCO)c3)cc2N=C(N)C1` [Example 10, 2-Amino-8-[3-[2-hydroxyethyl(methyl)sulfamoyl]phenyl]-N,N-dipropyl-3H-1-benzazepine-4-carboxamide], the values for the EC50 on human TLR8 and at human TLR7 were 4 nM and 20000 nM, respectively.
Take `CCCN(CCC)C(=O)C1=Cc2ccc(-c3ccc(OC)c(S(=O)(=O)N4CC[C@@H](O)C4)c3)cc2N=C(N)C1` [Example 15, 2-Amino-8-[3-[(3R)-3-hydroxypyrrolidin-1-yl]sulfonyl-4-methoxy-phenyl]-N,N-dipropyl-3H-1-benzazepine-4-carboxamide]: the results for the EC50 at human TLR8 and on human TLR7 were 4 nM and 17000 nM, respectively.
`CCCN(CCC)C(=O)C1=Cc2ccc(-c3cccc(S(=O)(=O)N4CCNCC4)c3)cc2N=C(N)C1` [Example 21, 2-Amino-8-(3-piperazin-1-ylsulfonylphenyl)-N,N-dipropyl-3H-1-benzazepine-4-carboxamide]: the EC50 on human TLR8 was 18 nM; on human TLR7, greater than 100000 nM.
Regarding `CCCN(CCC)C(=O)C1=Cc2ccc(-c3cncc(S(=O)(=O)N4CCNCC4)c3)cc2N=C(N)C1` [Example 20, 2-Amino-8-(5-piperazin-1-ylsulfonyl-3-pyridyl)-N,N-dipropyl-3H-1-benzazepine-4-carboxamide], the EC50 turned out to be 17 nM on human TLR8 and 5000 nM on human TLR7.
Take `CCCN(CCC)C(=O)C1=Cc2ccc(-c3cccc(S(=O)(=O)N4CCC(O)CC4)c3)cc2N=C(N)C1` [Example 13, 2-Amino-8-[3-[(4-hydroxy-1-piperidyl)sulfonyl]phenyl]-N,N-dipropyl-3H-1-benzazepine-4-carboxamide]: the values for the 50% effective concentration (EC50) at human TLR8 and at human TLR7 were 4 nM and 17000 nM, respectively.
`CCCN(CCC)C(=O)C1=Cc2ccc(-c3cccc(S(=O)(=O)N4CCCC4)c3)cc2N=C(N)C1` [Example 3, 2-amino-N,N-dipropyl-8-(3-pyrrolidin-1-ylsulfonylphenyl)-3H-1-benzazepine-4-carboxamide]: the EC50 on human TLR8 is 6 nM; at human TLR7, greater than 100000 nM.

Values taken from patent publication US9890124B2, “Benzazepine sulfonamide compounds” (Hoffmann-La Roche Inc., priority 2015, dated 2018).
